Measured values: ChEMBL document CHEMBL1201862, “PubChem BioAssay data set” (2004)
The source made the active and inactive calls.

Legend:
[1] = target: Aspartyl aminopeptidase (Plasmodium falciparum 3D7, UniProt Q8I2J3)
[2] = target: Procathepsin L (Homo sapiens, UniProt P07711)
[3] = system: H9c2; assay: cells; assay type: functional, cell-based; details: Rattus norvegicus, H9c2, Myocardium;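 also: confirmatory concentration-response retest of ultra-high-throughput screening hits for modulation of myocardial damage; cell death induced by hydrogen peroxide oxidative stress; compound pretreatment for 60 min then peroxide exposure for 2 h; potency is for protecting the cells against peroxide damage rather than for killing them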
[4] = A Cell Based Secondary Assay To Explore Cytotoxicity of Compounds that Sensitize Mycobacterium Tuberculosis to Beta-Lactam Antibiotics.; assay type: functional
[5] = target: T1, Alkaline phosphatase, tissue-nonspecific isozyme (Homo sapiens, UniProt P05186)
T1 sequence (P05186 whole entry): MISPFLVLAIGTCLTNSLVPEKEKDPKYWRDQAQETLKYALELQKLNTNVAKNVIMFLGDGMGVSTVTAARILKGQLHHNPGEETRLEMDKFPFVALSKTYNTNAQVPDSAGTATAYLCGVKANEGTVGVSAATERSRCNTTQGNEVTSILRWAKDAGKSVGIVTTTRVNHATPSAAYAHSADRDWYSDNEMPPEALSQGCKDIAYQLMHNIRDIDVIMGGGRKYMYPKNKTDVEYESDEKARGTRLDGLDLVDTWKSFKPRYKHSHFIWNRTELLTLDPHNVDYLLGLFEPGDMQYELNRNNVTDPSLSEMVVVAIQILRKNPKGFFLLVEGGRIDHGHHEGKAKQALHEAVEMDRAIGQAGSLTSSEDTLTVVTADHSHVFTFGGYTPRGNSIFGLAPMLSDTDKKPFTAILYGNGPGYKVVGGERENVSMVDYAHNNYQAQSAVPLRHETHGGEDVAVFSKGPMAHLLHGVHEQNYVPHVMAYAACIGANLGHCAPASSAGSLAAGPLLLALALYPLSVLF

[6] = target: Acyl-homoserine lactone acylase PvdQ (Pseudomonas aeruginosa (strain LESB58), UniProt Q9I194); assay: P. aeruginosa PvdQ acylase inhibitors, dose response, biochemical, fluorescence, plate reader and imaging, cherry-picks (AID 493231)
Chain of Acyl-homoserine lactone acylase PvdQ (Q9I194 24-193 limits assumed): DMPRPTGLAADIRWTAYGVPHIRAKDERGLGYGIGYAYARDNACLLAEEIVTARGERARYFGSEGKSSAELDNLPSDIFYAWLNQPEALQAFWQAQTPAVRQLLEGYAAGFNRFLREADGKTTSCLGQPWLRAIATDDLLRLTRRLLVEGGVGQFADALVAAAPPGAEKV
Chain of Acyl-homoserine lactone acylase PvdQ (Q9I194 217-762 limits assumed): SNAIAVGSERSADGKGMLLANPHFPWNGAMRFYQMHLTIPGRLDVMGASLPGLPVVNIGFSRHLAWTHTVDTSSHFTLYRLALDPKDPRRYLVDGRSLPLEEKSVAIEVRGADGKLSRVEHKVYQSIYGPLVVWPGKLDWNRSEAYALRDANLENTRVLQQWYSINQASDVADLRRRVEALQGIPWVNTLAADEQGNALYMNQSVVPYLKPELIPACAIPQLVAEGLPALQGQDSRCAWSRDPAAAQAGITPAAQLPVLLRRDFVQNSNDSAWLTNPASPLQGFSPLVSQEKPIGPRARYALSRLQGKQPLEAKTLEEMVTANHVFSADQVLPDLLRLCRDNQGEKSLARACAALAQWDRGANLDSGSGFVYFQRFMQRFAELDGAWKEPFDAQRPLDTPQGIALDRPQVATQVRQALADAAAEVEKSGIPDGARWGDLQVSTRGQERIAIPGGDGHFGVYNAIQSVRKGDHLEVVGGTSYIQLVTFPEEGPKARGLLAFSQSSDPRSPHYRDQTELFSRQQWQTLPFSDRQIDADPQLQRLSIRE

[7] = target: Aminopeptidase N (Plasmodium falciparum FcB1/Columbia, UniProt O96935); assay: P. falciparum M1AAP inhibitors, biochemical, fluorogenic H-Leu-NHMec substrate, 1536-well (AID 1445); set-up: species or system Plasmodium falciparum 3D7, 3D7
[8] = target: Eukaryotic translation initiation factor 4H (Homo sapiens, UniProt Q15056); assay: human eIF4H binding inhibitors, primary screen, translation initiation inhibitor project, biochemical, uHTS, fluorescence polarization (AID 2012)
[9] = target: T2, Polyadenylate-binding protein 1 (Homo sapiens, UniProt P11940); assay: PABP poly(A) RNA binding inhibitors, primary screen, biochemical, fluorescence polarization, uHTS (AID 2014)
T2 sequence (P11940 whole entry): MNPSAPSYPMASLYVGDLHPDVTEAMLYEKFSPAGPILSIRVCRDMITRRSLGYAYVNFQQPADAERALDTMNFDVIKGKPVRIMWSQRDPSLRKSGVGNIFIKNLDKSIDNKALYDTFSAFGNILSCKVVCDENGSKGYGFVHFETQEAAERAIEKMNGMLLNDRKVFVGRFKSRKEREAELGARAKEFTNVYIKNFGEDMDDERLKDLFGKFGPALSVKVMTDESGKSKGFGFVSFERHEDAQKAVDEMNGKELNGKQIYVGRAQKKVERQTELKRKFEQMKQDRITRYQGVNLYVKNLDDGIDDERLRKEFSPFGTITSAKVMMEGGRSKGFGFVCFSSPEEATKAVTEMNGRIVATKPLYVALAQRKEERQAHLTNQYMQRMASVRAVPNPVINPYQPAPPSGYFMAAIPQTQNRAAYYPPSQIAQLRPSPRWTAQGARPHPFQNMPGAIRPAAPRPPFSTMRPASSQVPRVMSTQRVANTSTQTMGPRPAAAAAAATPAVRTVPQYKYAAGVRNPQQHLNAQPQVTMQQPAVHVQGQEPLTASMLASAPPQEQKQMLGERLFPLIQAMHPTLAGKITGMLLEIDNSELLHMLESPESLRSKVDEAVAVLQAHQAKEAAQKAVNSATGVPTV

[10] = growth suppression of beta-catenin-knockout colon cells, dose response, cell-based, HCT116, human colon tumor (AID 1045); assay type: functional;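 also: HCT116 colon tumor cells with beta catenin knocked out; cells exposed to compound for 60 hours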
[11] = target: Vasopressin V1a receptor (Homo sapiens, UniProt P37288); assay: Counterscreen for Oxytocin Receptor (OXTR) agonists: Fluorescence-based cell-based high throughput dose response assay to identify agonists of the vasopressin 1 receptor (V1R). [Related pubchem assays: 2435 (Primary screen (OXTR agonists in singlicate)), 434991 (Counterscreen (V1R agonists in triplicate)), 2482 (Summary (OXTR agonists)) …; assay type: functional
Chain of Vasopressin V1a receptor (P37288 whole entry): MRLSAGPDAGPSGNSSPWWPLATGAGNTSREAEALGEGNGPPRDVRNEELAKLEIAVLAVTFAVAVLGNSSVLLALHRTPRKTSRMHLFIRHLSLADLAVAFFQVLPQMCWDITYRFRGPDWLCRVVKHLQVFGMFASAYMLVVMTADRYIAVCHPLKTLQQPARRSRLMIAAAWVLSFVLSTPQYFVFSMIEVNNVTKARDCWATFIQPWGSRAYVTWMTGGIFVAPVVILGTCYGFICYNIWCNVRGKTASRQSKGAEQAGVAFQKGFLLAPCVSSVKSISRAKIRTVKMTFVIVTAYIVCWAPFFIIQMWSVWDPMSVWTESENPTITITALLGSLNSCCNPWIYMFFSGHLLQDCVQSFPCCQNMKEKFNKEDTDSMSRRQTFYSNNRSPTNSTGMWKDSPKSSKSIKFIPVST

[12] = Luminescence Cell-Based Dose Retest to Confirm Inhibitors of Cancer Stem Cells. [Related pubchem assays (depositor defined):AID2717, AID2721]; assay type: functional; details: Homo sapiens
[13] = system: INS1; assay: beta cell apoptosis inhibitors, cytokine rescue, dose response, luminescence, retest (AID 449756); assay type: functional, cell-based; details: Rattus norvegicus;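 also: cell death triggered by IL-1 beta plus TNF-alpha plus IFN-gamma mixture; protective hits raise ATP signal compared with cytokine alone wells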
[14] = growth suppression of PTEN-null colon cells, dose response, cell-based, HCT116 PTEN knockout (AID 1047); assay type: functional;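 also: HCT116 colon tumor cells with PTEN knocked out; cells exposed to compound for 60 hours before readout; potency for loss of cell viability measured by luminescence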
[15] = target: Oxytocin receptor (Homo sapiens, UniProt P30559); assay: Fluorescence-based cell-based high throughput dose response assay for agonists of the Oxytocin Receptor (OXTR). [Related pubchem assays: 2435 (Primary screen (OXTR agonists in singlicate)), 434991 (Counterscreen (V1R agonists in triplicate)), 2482 (Summary (OXTR agonists)), 434963 (Confirmation screen (OXTR agonists in triplicate))]; assay type: functional
Chain of Oxytocin receptor (P30559 whole entry): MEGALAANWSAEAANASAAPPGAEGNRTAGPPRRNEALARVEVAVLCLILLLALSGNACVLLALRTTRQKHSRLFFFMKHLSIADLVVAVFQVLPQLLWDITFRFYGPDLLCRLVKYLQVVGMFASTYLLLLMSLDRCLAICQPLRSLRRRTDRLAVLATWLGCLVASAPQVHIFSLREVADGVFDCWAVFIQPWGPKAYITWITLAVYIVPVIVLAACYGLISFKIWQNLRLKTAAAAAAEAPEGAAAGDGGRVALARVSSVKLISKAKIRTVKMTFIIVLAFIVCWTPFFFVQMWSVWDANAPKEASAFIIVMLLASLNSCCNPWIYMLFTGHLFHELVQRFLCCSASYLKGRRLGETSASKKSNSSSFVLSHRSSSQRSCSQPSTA

[16] = target: Heat shock protein HSP 90-alpha (Homo sapiens, UniProt P07900); assay type: functional, organism-based
[17] = C. albicans growth with fluconazole, confirmation, fluorescence, retest (AID 2467); assay type: functional, cell-based
[18] = target: Ras and Rab interactor 1/Tyrosine-protein kinase ABL1 (Homo sapiens, UniProt P00519+Q13671); assay type: functional;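 also: biochemical TR-FRET dose-response test measuring inhibition of binding between Rin1 and Abl proteins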
[19] = system: Vero; assay: Vero cell cytotoxicity, cytotoxicity control for flavivirus capping enzyme inhibitors (AID 588742); assay type: functional; details: Chlorocebus sabaeus
[20] = target: T2, Polyadenylate-binding protein 1; assay: PABP1 MLLE–PAM2 interaction inhibitors, dose response, miRNA deadenylation inhibitor project, biochemical, fluorescence polarization, Cy5-PAM2 peptide, secondary (AID 602260); assay type: functional; details: read-out: IC50_Mean
[21] = target: Serine/threonine-protein phosphatase PP1-alpha catalytic subunit (Homo sapiens, UniProt P62136); assay: PP1 phosphatase inhibitors, dose response, biochemical, fluorescence (AID 2403);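 also: phosphatase turnover of OMFP into fluorescent 3-O-methylfluorescein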
Chain of Serine/threonine-protein phosphatase PP1-alpha catalytic subunit (P62136 whole entry): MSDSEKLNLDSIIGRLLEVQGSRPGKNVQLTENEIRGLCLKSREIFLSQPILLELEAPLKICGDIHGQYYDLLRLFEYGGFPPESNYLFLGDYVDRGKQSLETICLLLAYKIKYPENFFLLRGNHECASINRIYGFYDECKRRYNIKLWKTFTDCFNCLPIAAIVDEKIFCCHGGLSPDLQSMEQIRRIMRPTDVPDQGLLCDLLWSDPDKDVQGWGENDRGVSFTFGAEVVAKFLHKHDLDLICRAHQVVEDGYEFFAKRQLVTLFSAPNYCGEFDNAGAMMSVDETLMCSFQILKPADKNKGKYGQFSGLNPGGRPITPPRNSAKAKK

[22] = target: Serine/threonine-protein phosphatase (Homo sapiens, UniProt Q9BPW0); assay: Counterscreen for inhibitors of PP1: fluorescence-based biochemical high throughput dose response assay to identify inhibitors of Protein Phosphatase 5 (PP5). [Related pubchem assays: 2034 (Summary (PP5 inhibitors)), 1987 (PP5 inhibitors in singlate), 2235 (PP1 inhibitors in singlate)]
Chain of Serine/threonine-protein phosphatase (Q9BPW0 whole entry): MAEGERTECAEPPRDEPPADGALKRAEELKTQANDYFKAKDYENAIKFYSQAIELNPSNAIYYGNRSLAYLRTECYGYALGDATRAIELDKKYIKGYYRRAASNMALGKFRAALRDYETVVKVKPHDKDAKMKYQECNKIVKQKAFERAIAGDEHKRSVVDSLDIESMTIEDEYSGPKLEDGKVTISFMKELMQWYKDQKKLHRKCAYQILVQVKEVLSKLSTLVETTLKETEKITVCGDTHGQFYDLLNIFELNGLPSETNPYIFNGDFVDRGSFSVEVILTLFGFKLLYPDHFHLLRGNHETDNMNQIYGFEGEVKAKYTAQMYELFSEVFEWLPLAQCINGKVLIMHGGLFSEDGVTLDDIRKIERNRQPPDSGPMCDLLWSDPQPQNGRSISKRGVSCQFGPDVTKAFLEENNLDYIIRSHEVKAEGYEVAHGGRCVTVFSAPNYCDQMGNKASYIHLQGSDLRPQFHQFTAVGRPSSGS

[23] = target: T2, Polyadenylate-binding protein 1; assay: PABP1 MLLE–PAM2 binding inhibitor potency, dose response, biochemical, fluorescence polarization, FITC-PAM2 peptide (AID 602259); assay type: functional; details: read-out: IC50_Mean
[24] = target: Genome polyprotein (dengue virus type 2, UniProt P29990); assay: Dengue-2 NS5 methyltransferase inhibitors, primary screen, biochemical, confirmation dose response (AID 588689); assay type: functional
Chain of Genome polyprotein (P29990 2492-3391 limits assumed): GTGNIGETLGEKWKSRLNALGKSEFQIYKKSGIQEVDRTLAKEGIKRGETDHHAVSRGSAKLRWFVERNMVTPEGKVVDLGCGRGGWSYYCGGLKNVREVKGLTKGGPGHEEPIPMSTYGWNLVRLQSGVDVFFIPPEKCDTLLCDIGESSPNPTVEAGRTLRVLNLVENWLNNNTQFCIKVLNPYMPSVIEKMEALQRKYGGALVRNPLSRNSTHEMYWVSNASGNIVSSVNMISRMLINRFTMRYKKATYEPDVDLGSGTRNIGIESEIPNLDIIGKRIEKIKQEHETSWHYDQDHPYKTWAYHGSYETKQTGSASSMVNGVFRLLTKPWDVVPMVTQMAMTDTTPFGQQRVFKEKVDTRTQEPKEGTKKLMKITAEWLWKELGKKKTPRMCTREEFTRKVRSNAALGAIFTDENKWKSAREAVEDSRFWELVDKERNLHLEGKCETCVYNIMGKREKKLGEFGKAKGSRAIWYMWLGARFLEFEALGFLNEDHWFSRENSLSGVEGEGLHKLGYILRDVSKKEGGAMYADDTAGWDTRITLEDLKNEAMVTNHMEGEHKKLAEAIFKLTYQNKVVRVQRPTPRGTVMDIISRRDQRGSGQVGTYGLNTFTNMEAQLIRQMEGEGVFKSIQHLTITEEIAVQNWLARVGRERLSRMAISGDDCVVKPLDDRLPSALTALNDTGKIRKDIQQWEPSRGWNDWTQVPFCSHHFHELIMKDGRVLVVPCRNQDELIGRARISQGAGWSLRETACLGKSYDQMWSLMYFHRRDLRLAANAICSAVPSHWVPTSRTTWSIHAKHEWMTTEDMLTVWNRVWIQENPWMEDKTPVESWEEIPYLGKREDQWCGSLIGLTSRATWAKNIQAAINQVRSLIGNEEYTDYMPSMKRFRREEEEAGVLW

[25] = NIH-3T3 fibroblast cytotoxicity, dose response, cytotoxicity control, cell-based, fluorescence, Alamar Blue, secondary assay (AID 2327); assay type: functional;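 also: NIH-3T3 mouse fibroblasts cultured with fluconazole at 8 µg/mL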

Chain of Aspartyl aminopeptidase (Q8I2J3 whole entry): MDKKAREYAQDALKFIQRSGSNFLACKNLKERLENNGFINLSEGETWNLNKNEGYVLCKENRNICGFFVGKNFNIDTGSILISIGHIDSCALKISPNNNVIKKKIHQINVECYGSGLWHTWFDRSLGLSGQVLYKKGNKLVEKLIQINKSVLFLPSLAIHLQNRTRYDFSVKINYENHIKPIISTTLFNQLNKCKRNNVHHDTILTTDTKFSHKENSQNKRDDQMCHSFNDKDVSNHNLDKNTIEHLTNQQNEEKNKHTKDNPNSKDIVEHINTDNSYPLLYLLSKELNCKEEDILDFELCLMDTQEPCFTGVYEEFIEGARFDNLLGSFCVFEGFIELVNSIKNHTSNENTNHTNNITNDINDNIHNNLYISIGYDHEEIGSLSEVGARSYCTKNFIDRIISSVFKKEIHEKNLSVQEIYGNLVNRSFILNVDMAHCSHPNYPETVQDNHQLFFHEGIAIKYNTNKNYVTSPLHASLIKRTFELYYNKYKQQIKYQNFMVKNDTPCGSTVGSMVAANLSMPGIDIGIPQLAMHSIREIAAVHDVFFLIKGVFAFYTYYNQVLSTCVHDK
Chain of Procathepsin L (P07711 whole entry): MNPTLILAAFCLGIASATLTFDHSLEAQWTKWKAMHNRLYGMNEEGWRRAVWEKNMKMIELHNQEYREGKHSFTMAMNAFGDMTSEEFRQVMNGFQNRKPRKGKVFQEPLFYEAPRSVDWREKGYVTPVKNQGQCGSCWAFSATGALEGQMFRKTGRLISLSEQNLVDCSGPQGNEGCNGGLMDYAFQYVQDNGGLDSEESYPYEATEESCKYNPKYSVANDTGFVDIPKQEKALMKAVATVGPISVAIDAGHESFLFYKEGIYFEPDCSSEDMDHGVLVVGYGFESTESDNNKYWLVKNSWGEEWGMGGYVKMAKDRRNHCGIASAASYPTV

## CC(C)(C)c1ccc(O)c(/N=C/c2cc(Br)ccc2O)c1
[1]
  IC50: 0.807 µM (active)
[2]
  IC50: > 59.6 µM (not active)

## Cc1ccc(C)c(NC(=O)C(Sc2nc3ccccc3c(=O)n2CC(C)C)c2ccccc2)c1 (stereo not given)
[3]
  IC50: 36.3 µM (inactive)
[4]
  CC50: 21.3 µM (active)
[5]
  EC50: > 100 µM (not active)

## N#CC(c1ccc(Cl)nn1)c1ccccc1Cl (stereo not given)
[6]
  AC50: 0.944 µM (active)

## CC(C)CCNC(=O)CSc1nc2ccsc2c(=O)n1NC(=O)c1ccccc1
[7]
  IC50: 87.1 µM (active)

## C[N+]1(C)[C@@H]2CC[C@H]1CC(OC(=O)C(c1ccccc1)c1ccccc1)C2 (stereo not given in full)
[8]
  IC50: > 100 µM (inactive)
[9]
  IC50: 6.66 µM (active)

## COc1ccc(C2NCCc3c2[nH]c2ccccc32)cc1COc1ccc(F)cc1 (stereo not given)
[10]
  EC50: 7.05 µM (active)
[11]
  EC50: 20.8 µM (not active)
[12]
  AC50: 5.89 µM (active)
[13]
  AC50: 6.96 µM (active)
[14]
  EC50: 6.19 µM (active)
[15]
  EC50: 26.7 µM (not active)

## CN1CCN(C(c2ccccn2)c2cc(Cl)c3cccnc3c2O)CC1 (stereo not given)
[16]
  AC50: 6.54 µM (active)
[17]
  EC50: 1.42 µM (active)
[18]
  IC50: > 73.5 µM (inactive)
[19]
  CC50: 37.2 µM (active)
[20]
  IC50: > 66 µM (inactive)
[21]
  IC50: 4.17 µM (active)
[22]
  IC50: 47.6 µM (not active)
[23]
  IC50: > 66 µM (inactive)
[24]
  IC50: > 100 µM (active)
[25]
  EC50: 24.9 µM (active)
